Results on two compounds are retold here after patent US12714678B2, “Peptides and methods of treating sepsis, atherosclerosis, thrombosis, stroke, heart attack and inflammation” (THE BOARD OF TRUSTEES OF THE UNIVERSITY OF ILLINOIS, priority 2019, dated 2026).

The subject of series [1] is C57/BL6 mice. As to the kind of experiment: Reverse passive Arthus (rpA) reaction. Type of series: in vivo, mouse. To be noted: 5 μmol/kg, vs scrambled peptide. The protocol: C57/BL6 mice were anesthetized by i.p. injection of a mixture of ketamine and xylazine (100 mg/kg and 16 mg/kg mouse weight), and the medial surface of the mouse back was shaved. Shaved mice received intradermal injections of rabbit anti-bovine serum albumin (BSA) antibody (6 μg/μL, MP Biomedicals, OH) in 25 μL of 0.9% NaCl, followed by i.v. injection of BSA (75 μg/g mouse weight) as well as the peptide inhibitors (5 μmol/kg mouse weight) in 100 μL sterile 0.9% NaCl. In addition, control sites received 25 μL of PBS in parallel. Four hours after injection, mice were euthanized and inflamed or control skin samples at each injection site were collected. The hemoglobin (Hb) contents in the skin samples were quantified by hemoglobin colorimetric assay kit (Cayman Chemical, Ann Arbor, MI).

For series [2], the system named is C57BL/6 mice. As to the kind of experiment: Tail bleeding time. To be noted: M3mP6 HLPN 10 μmol/kg; aspirin 4.3 mg/kg; clopidogrel 4 mg/kg; ticagrelor 3 mg/kg; cangrelor 30 μg/kg; MB2mP6.
Protocol: M3mP6 was administered via retro-orbital injection 15 minutes prior to procedure.
Tail bleeding time was performed as previously described (21, 39). Eight- to 10-week-old C57BL/6 mice were anesthetized with isoflurane. After cutting 0.5-cm-long segment of the distal tip of the tail, their tails were immersed in 0.15 M NaCl immediately at 37° C. Tail bleeding time was defined as the time between cutting tail and stable cessation of bleeding (no rebleeding within 60s). […] If bleeding persisted at 15 minute time point, bleeding was stopped by application of pressure. Data were analyzed using Mann-Whitney test to compare medians between groups.
Tail bleeding time was performed as previously described (16, 29). Eight- to 10-week-old C57BL/6 mice weighing 20-25 g were anesthetized with isoflurane. After cutting a 0.5-cm-long segment off the distal tip of the tail, their tails were immersed in 0.15 M NaCl immediately at 37° C. Tail bleeding time was defined as the time between cutting the tail and stable cessation of bleeding (no re-bleeding within 60s). […] If bleeding persisted at 15 minutes, bleeding was stopped by application of pressure. Data were analyzed using the Mann-Whitney test to compare medians between groups.
The subject of series [3] is C57BL/6 mice. As to the kind of experiment: Cecal ligation and puncture (CLP) sepsis model. To be noted: bolus 2.5 μmol/kg then 1.25 μmol/kg/hour i.v. Type of series: in vivo, mouse. The protocol: CLP sepsis was induced as described previously (32, 33). In brief, mice (14- to 16-week-old with equal number of each gender) were anesthetized by intraperitoneal administration of ketamine (100 mg/kg body weight) and xylazine (8 mg/kg). After a midline laparotomy, the cecum was ligated at about 1 cm from the end and then subjected to a double “through and through” perforation with an 18-gauge needle. Sham-operated mice underwent the same procedure except for ligation and puncture of the cecum. After the procedure, an analgesic (buprenorphine, 0.1 mg/kg, s.c.) was given immediately and every 12 h thereafter for 3 d. At these time points, fluid resuscitation (prewarmed 0.9% NaCl, 0.05 ml/g body weight) was given through subcutaneous injection to prevent fluid loss and help the recovery of body temperature. […] The survival of mice was observed every 6 h for 8 days and analyzed by the Log Rank test (using Prism GraphPad software (ver. 5.0), San Diego, CA, USA). […]
Twenty-four hours after CLP, mouse blood was collected and added to an EDTA-rinsed microcentrifuge tube or citrate buffer. […] The kidney function markers BUN, creatinine and cystatin C and mouse liver function marker ALT were detected using corresponding kits according to the manufacturers' instructions. […]

Where a SMILES comes first, the peptide text is derived from it. Where no end group is shown, it is not given here. The star is where a group is joined. Myristoyl = CCCCCCCCCCCCCC(=O)*

For `CCCCCCCCCCCCCC(=O)N[C@@H](Cc1ccccc1)C(=O)N[C@@H](CCC(=O)O)C(=O)N[C@@H](CCCCN)C(=O)N[C@@H](CCC(=O)O)C(=O)N[C@@H](CCCCN)C(=O)N[C@@H](CC(C)C)C(=O)O` [MB2mP6, Myr-FEKEKL] (Myristoyl-FEKEKL-OH; C-terminus assumed), in series [1], the inflammation-induced hemorrhage result is on record as “neither affected”. Further, in series [2], the “tail bleeding time vs normal control” value is reported as “neither affected”.

Take “Myr-EFKKLE (Myristoyl-EFKKLE) [control peptide, scrambled control for MB2mP6 in micellar nanoparticle formulation (CLP study)]”: the “survival rate at 192 h (8 days), infusion immediately after CLP” value in series [3] was 26%.
